Data set [1] relates to rabbit model for capsular contraction. Kind of data set: Pilot rabbit model for capsular contraction: sub-cutaneous pockets with fibrin glue, histology at two weeks. The data set is classed as in vivo. Conditions: tissue harvested at two weeks; 0.1% Rose Bengal + 532 nm light (3 min at 350 mW) prior to fibrin glue; vs fibrin glue only. Here is the method:
(§1) A pilot experiment in a rabbit model for capsular contraction was developed. Three sub-cutaneous pockets were made by surgical incision on the upper rabbit flank. One pocket was left untreated and surgically closed (No fibrin glue). Of the remaining two, one was treated with Fibrin Glue only, and one received Fibrin Glue+RB (0.1% Rose Bengal)+532 nm light (3 min at 350 mW). Fibrin glue is known to produce a fibrotic reaction in this model. After two weeks all three pockets were surgically re-accessed and inspected. […] These cells also appear contained under layers of presumably, cross-linked collagen. A biodegradation assay was also performed. Pockets were treated as described above at both a low (1 J/cm^2) and high (25 J/cm^2) fluence. Fluence was measured using FieldMax II laser power meter (Coherent, Santa Clara, CA). Immediately following, the skin and fascia were removed. Treated and untreated fascia were biopsied with a six mm punch biopsy, weighed and subjected to digestion in a 1% collagenase (Sigma Aldrich. St. Louis, MO) solution at 37° C. Time for complete digestion (the lack of any visible fibers) was recorded for each sample and corrected by weight.

For data set [2], the system named is fascia of the implant pocket. Put plainly: Biodegradation assay: collagenase digestion of fascia. The arrangement: species or system rabbit. Here is the method:
as §1, with “weight. In vitro studies confirmed that photochemical tissue passivation, under the conditions that were subsequently used in the animal study, could successfully alter the fascia of the implant pocket. […]” for “weight.”

Data set [3] concerns capsular contracture following prosthetic implant placement. Put plainly: Pre-clinical model of capsular contracture following prosthetic implant placement, fibrin glue induced. The data set is classed as in vivo, New Zealand white rabbits. Here is the method: The effect of Photochemical Tissue Passivation in a pre-clinical model of capsular contracture following prosthetic implant placement was evaluated. Under general anesthesia, Nine New Zealand white rabbits received three, six cc smooth saline implants placed in the dorsal sub-panniculus soft tissue. Each Rabbit received one control implant and two experimental implants. Briefly, the subpanniculus camosus plane in the dorsum region was dissected and a single customized six cc saline smooth implant with pressure port valve (Allergan Inc., CA, USA) was placed. A total of three implants were placed on the dorsum of each rabbit. The control group consisted of an implant with no Fibrin Glue and no PTP treatment. Before implant placement, the pocket site of the PTP experimental group was treated with 2 ml 0.1% Rose Bengal in a phosphate buffered saline, and Was then exposed to green laser light at 532 nm from a continuous wave KTP laser (Laserscope Aura-I, San Jose, CA). The second experimental group consisted of an implant with Fibrin Glue only. Prior to implant placement, all experimental pockets were injected with five cc of fibrin glue, 500 |μl of 10% CaCl, 1000 units of thrombin in one milliliter of 50 mM TrisCl as a contracture inducing agent. The incisions were closed in two layers with subdermal 4-0 […] and 4-0 interrupted nylon sutures. Topical fibrin glue was applied to the implant pockets in all experimental groups to induce subsequent capsular contracture. Accordingly, the experimental groups can be summarized as follows: Group 1: Control group-“Standard Breast Augmentation” One pocket per Rabbit undergoing standard implant placement with no Fibrin Glue or Passivation. One six cc smooth saline implant was placed per pocket. The incisions were closed in two layers with subdermal 4-0 Vicryl and 4-0 interrupted nylon sutures. Group 2: Experimental group-“Fibrin Glue” only One dorsal pocket per Rabbit is dissected. Fibrin glue was injected into the implant pocket as a capsular contracture-inducing agent. One six cc smooth saline implants was placed per pocket. The incision was closed as above. Group 3: Experimental group-“Pre-implant Tissue Passivation” One dorsal pocket per Rabbit was dissected, Rose Bengal dye was applied. The pocket was exposed to green laser light at. 532 nm from. a continuous wave KT.? laser (Laserscope Aura-I, San Jose, CA). Fibrin glue was injected into the implant pocket as a capsular contracture-inducing agent. Following fibrin glue injection, one six cc smooth saline implant was placed per pocket. The incision was closed as above. Capsule specimens were fixed with 10% buffered formalin and embedded in paraffin. Sections were stained with both Masson Trichrome, and SMA antibody and evaluated histologically and capsular thickness was measured. […] In fact, the SMA pattern in capsules harvested from the treated groups resembled those, which had not been instilled with fibrin glue (FIG. 3).

For data set [4], the system named is vein graft intimal hyperplasia. The data set is classed as in vivo, Sprague-Dawley rats. The method, then: In vivo testing was done by placing a. reversed epigastric vein interposition graft in the femoral artery of Sprague-Dawley rats. Grafts were harvested after four weeks. A total of 16 rats underwent a femoral interposition graft with reversed epigastric vein. Half of the vein gratis (N=8) were treated with PTP using 25 J/cm^2 at fluence. Average operative time was two hours. Additional operative time for PTP was 4-5 minutes on average. There were three instances of surgical wound dehiscence between post-operative day one and two; one in the control group and two in the experimental group. These wounds were irrigated and resutured. None of the grafts were exposed. […] After four weeks, 100% of the vein grafts were patent. […] Histologic cross-sections of the mid-portion of the graft were analyzed using light microscopy. Intimal thickness was measured as the distance between the internal elastic lamina. and the vessel lumen.

Data set [5] deals with connective tissue. The text has this: In certain embodiments, a photoactive agent, e.g., Rose Bengal, can be applied, e.g., by brushing, dripping or spraying onto, or injecting into, tissue surfaces (e.g., a single surface in some cases) of a tissue prior to the application of electromagnetic energy, followed by irradiation at an irradiance of less than about 1 W/cm^2. Penetration of topically applied Rose Bengal is about 100 μm or less into connective tissue. […] Similarly, vein grafts or arteriovenous fistula can be prepared for therapeutic use by providing Rose Bengal to the tissue and irradiating the tissue at an irradiance of less than about 1 W/cm^2.

Read-outs that look alike come from different tables or passages of the source.

On to `O=C1OC2(c3cc(I)c(O)c(I)c3Oc3c2cc(I)c(O)c3I)c2c(Cl)c(Cl)c(Cl)c(Cl)c21` [PTP, Rose Bengal], for which the “inflammatory infiltrate within the implant pockets (histology)” value in data set [1] was “less infiltrate”. Besides, the “increase in degradation time (collagenase digestion)” value in data set [2] (1% collagenase, 37° C, compared to untreated tissue) came out at 300%. Further, the “effect of increasing the power of the laser on collagen cross-linking” value in data set [2] (high (25 J/cm^2) vs low (1 J/cm^2) fluence) is recorded as “did not increase collagen cross-linking”. In addition, the “capsular thickness compared to Fibrin Glue alone control (histology)” value in data set [3] (eight weeks, Fibrin Glue + Photochemical Tissue Passivation group) is listed as “significant decrease in capsular thickness”. The “decrease in capsule thickness” value in data set [3] (eight weeks, compared to the controls) amounted to 52%. Besides, the “deposition of smooth muscle actin (SMA immunohistochemistry)” value in data set [3] (eight weeks, treated pockets vs untreated pockets receiving fibrin glue) is on record as “significantly less deposition of smooth muscle actin”. Besides, in data set [3] (treated pockets), the “fibrohistiocystic cells, macrophages and synovial metaplasia” value was “less fibrohistiocystic cells, macrophages and synovial metaplasia”; the “inflammation and vascularity within the capsule” value was “decreased inflammation and vascularity”. In addition, in data set [4] (after four weeks, N = 8, Table 2), the “Intimal Thickness” value is 24 + 22 um. The “Medial thickness” value in data set [4] (after four weeks, N = 8, Table 3) is 141 + 40 um. For the same molecule, the vein grafts patent in data set [4] (after four weeks, all grafts, treated and untreated) was determined as 100%. The neointimal thickness in data set [4] (four weeks, PTP 25 J/cm^2, N=8) is listed as 24+22 μm. This molecule also yielded a Medial thickness in data set [4] (four weeks, treated grafts) of 141 µm. For the same molecule, in data set [4] (rat, in vivo), the “instances of surgical wound dehiscence” value is “two”, the “pseudoaneurysms or aneurysmal dilatation of the grafts” value is recorded as “no pseudoaneurysms or aneurysmal dilatation” and the wound infections entry was “no wound infections”. The “graft distention after vessel clamp removal” value in data set [4] (restored blood flow, compared to untreated controls) was “less distention”. Moreover, the “smooth muscle hypertrophy and medial thickness” value in data set [4] (treated compared to untreated grafts) is “marked reduction in smooth muscle hypertrophy and medial thickness”. Also, in data set [4] (treated grafts vs untreated), the “reduction in neointimal thickness” value is listed as 70%. Moreover, the “penetration into connective tissue” value in data set [5] is listed as not above 100 μm.

Values taken from US12208001B2, “Methods and systems for preventing or reducing stenosis in a subject receiving a graft” (The General Hospital Corporation, priority 2012, dated 2025).
